Results taken from US5521156A, “Cyclic neurokinin A antagonists” (priority 1994, dated 1996).
Where a SMILES comes first, the peptide text is derived from it. [ ]: non-standard residue; d: D form. Phe(4-NO2) = N[C@@H](Cc1ccc([N+](=O)[O-])cc1)C(=O)O; Phe(4-Cl) = N[C@@H](Cc1ccc(Cl)cc1)C(=O)O; Phe(4-NH2) = Nc1ccc(C[C@H](N)C(=O)O)cc1

What was measured:
[1] = biological target: T1, human jejunal NK-2 receptor (Homo sapiens, UniProt P21452); assay: NK-2 receptor binding (125I-neurokinin A) in HSKR-1 cell membranes; details: HSKR-1 cells (mouse 3T3 fibroblasts expressing human jejunal NK-2 receptor); 0.1 nM 125I-iodohistidyl-1-neurokinin A; mean ± S.E.M.
T1 construct: expressed in transfected cells; host or cells: HSKR-1 (mouse 3T3 fibroblasts)
T1 sequence (P21452 1-398): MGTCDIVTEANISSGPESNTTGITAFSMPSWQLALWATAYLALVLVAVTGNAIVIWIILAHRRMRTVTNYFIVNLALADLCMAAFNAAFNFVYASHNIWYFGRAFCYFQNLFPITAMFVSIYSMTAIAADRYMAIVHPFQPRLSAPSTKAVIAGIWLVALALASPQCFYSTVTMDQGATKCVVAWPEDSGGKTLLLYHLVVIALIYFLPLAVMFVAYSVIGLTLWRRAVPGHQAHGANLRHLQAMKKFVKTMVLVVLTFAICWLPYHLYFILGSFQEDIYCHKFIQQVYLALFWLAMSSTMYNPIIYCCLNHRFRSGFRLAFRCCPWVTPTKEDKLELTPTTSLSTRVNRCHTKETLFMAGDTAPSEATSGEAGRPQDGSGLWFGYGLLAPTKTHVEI
Protocol: (§1) Receptor binding assays were performed in crude tissue membranes. The NK-1 receptor binding affinity of proposed tachykinin antagonists was evaluated in guinea pig lungs (Keystone Biologicals, Cleveland, OH, kept frozen at -80° C. until use). Affinity for the NK-2 receptor was evaluated in HSKR-1 cells which are mouse 3T3 fibroblasts expressing the human jejunal NK-2 receptor. Tissues or cells were homogenized with a Polytron in 15 volumes of 50 mM Tris-HCl buffer (pH 7.4, 4° C.) containing 120 mM NaCl and 5 mM KCl and centrifuged at 48,000×g for 12 min. at 4° C. The pellet was resuspended in 15 volumes of 50 mM Tris-HCl buffer containing 10 mM EDTA and 300 mM KCl then set on ice for 30 min. The suspension was cetrifuged as above and the pellet washed by resuspension and cetrifugation two additional times in 50 mM Tris-HCl buffer (pH 7.4, 4° C.). The final pellet was resuspended in a concentration of 20 mg/ml in incubation buffer then kept at room temperature for at least 15 min prior to use. Receptor binding was initiated by addition of 250 μl membrane preparation (final protein concentration; lungs=286 μg/tube, HSKR-1 cells=100 μg/tube) in duplicate to 0.1 nM of the following radioligands: for NK-1 receptor assays, ^125 I-Bolton-Hunter Lys-3 labeled substance P (New England Nuclear, specific activity, 2200 Ci/mmol); for NK-2 receptor assays, ^125 iodohistidyl-1-neurokinin A (Amersham, specific activity, 2000 Ci/mmol) in a final volume of 500 μl of buffer containing 50 mM Tris-HCl (pH 7.4 at room temperature), 0.1% bovine serum albumin, 2 mM MnCl2, 40 μg/ml bacitracin, 4 μg/ml leupeptin and chymostatin, 1 μM thiorphan and various doses of the tachykinin antagonists. Incubations were performed at room temperature for 90 min (NK-1 receptor assays) or 2 hr (NK-2 receptor assays); binding was terminated by addition of 50 mM Tris-HCl buffer (pH 7.4, 4° C.) and filtration under vacuum through GF/B filters presoaked with 0.1% polyethyleneimine (NK-1 receptor assays) or 0.5% bovine serum albumin (NK-2 receptor assays). Nonspecific binding was defined as binding in the presence of 1 μM substance P (NK-1 receptor assays) or neurokinin A (NK-2 receptor assays) (Peptides International, Inc., Louisville, Ky.). Specific binding was calculated by subtracting nonspecific binding from total binding and corresponded to 70-90% of total binding. Data were analyzed and IC50 values generated by nonlinear regression using an iterative curve fitting program (GraphPAD Inplot, San Diego, Calif.). Protein was determined by the method of Lowry.

NK-1 receptor = biological target: T2, NK-1 receptor (Cavia porcellus, UniProt P30547); assay: NK-1 receptor binding (125I-Bolton-Hunter substance P) in guinea pig lung membranes; details: 0.1 nM 125I-Bolton-Hunter Lys-3 substance P, mean ± S.E.M.
T2 construct: tissue Keystone Biologicals, Cleveland, OH; host or cells: guinea pig lung
Protocol: as §1

T2 sequence (P30547 whole entry): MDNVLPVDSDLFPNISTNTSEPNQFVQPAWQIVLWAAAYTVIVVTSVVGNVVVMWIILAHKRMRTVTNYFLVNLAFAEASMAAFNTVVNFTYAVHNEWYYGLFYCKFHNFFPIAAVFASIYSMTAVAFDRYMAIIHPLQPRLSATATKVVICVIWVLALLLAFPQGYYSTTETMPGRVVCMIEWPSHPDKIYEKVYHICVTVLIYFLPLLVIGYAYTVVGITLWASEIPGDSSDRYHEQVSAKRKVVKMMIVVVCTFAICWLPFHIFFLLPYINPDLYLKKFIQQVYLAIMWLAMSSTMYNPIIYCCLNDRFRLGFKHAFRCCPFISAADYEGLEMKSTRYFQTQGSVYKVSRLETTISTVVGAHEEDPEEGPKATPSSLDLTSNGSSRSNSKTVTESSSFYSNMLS

In the case of CC(C)C[C@@H]1NC(=O)CNC(=O)[C@H](Cc2c[nH]c3ccccc23)NC(=O)[C@H](CCCNC(=N)N)NC(=O)[C@H](CC(C)C)NC(=O)CNC(=O)[C@H](Cc2c[nH]c3ccccc23)NC(=O)[C@H](CCCNC(=N)N)NC1=O [cyclo[Leu-Arg-Trp-Gly-Leu-Arg-Trp-Gly]] (cyclo(GLRWGLRW)), the IC50 [1] is reported as 768 ± 75 nM.

N=C(N)NCCC[C@@H]1NC(=O)[C@@H]2CCCN2C(=O)[C@@H](Cc2ccccc2)NC(=O)[C@H](Cc2ccccc2)NC(=O)CNC(=O)[C@H](Cc2ccccc2)NC1=O [cyclo[Phe--phe--Pro--Arg--Phe--Gly], cyclo[Phe-phe-Pro-Arg-Phe-Gly]] (cyclo(FGF[dF]PR)) showed an IC50 (NK-1 receptor) of 9310 ± 2070 nM and an IC50 [1] of 674 ± 57 nM.

CC(C)C[C@@H]1NC(=O)[C@@H](Cc2c[nH]c3ccccc23)NC(=O)[C@H](Cc2c[nH]c3ccccc23)NC(=O)CNC(=O)[C@H](Cc2c[nH]c3ccccc23)NC(=O)[C@H](CCCNC(=N)N)NC1=O [cyclo[Trp--trp--Leu--Arg--Trp--Gly], cyclo[Trp-trp-Leu-Arg-Trp-Gly]] (cyclo(GW[dW]LRW)) showed an IC50 (NK-1 receptor) of 4830 ± 297 nM and an IC50 [1] of 4.7 ± 0.15 nM.

Compound CC(C)C[C@@H]1NC(=O)[C@H](Cc2c[nH]c3ccccc23)NC(=O)[C@H](Cc2ccc(O)cc2)NC(=O)CNC(=O)[C@H](Cc2c[nH]c3ccccc23)NC(=O)[C@H](CCCNC(=N)N)NC1=O [cyclo[Tyr--Trp--Leu--Arg--Trp--Gly]] (cyclo(GYWLRW)) has an IC50 (NK-1 receptor) of 10000 nM and an IC50 [1] of 305 ± 31 nM.

C[C@@H]1NC(=O)[C@@H](Cc2c[nH]c3ccccc23)NC(=O)[C@H](Cc2ccc(O)cc2)NC(=O)CNC(=O)[C@H](Cc2c[nH]c3ccccc23)NC(=O)[C@H](CCCNC(=N)N)NC1=O [cyclo[Tyr--trp--Ala--Arg--Trp--Gly], cyclo[Tyr-trp-Ala-Arg-Trp-Gly]] (cyclo(ARWGY[dW])) gave an IC50 [1] of 56.7 ± 5.45 nM.

Work on CC(C)C[C@@H]1NC(=O)[C@@H](Cc2c[nH]c3ccccc23)NC(=O)[C@H](Cc2ccc(O)cc2)NC(=O)[C@H](Cc2c[nH]c3ccccc23)NC(=O)CNC(=O)[C@H](CCCNC(=N)N)NC1=O [cyclo[Tyr--trp--Leu--Arg--Gly--Trp], cyclo[Tyr-trp-Leu-Arg-Gly-Trp]] (cyclo(GWY[dW]LR)) yielded an IC50 [1] of 360 ± 21 nM.

With CC(C)C[C@@H]1NC(=O)[C@@H](Cc2c[nH]c3ccccc23)NC(=O)[C@H](Cc2ccc(O)cc2)NC(=O)[C@H](C)NC(=O)[C@H](Cc2c[nH]c3ccccc23)NC(=O)[C@H](CCCNC(=N)N)NC1=O [cyclo[Tyr--trp--Leu--Arg--Trp--Ala], cyclo[Tyr-trp-Leu-Arg-Trp-Ala]] (cyclo(AY[dW]LRW)) the IC50 [1] was 9.9 ± 0.9 nM.

In the case of CC(C)C[C@@H]1NC(=O)[C@@H](Cc2c[nH]c3ccccc23)NC(=O)[C@H](Cc2ccc(O)cc2)NC(=O)[C@@H]2CCCN2C(=O)[C@H](Cc2c[nH]c3ccccc23)NC(=O)[C@H](CCCNC(=N)N)NC1=O [cyclo[Tyr--trp--Leu--Arg--Trp--Pro], cyclo[Tyr-trp-Leu-Arg-Trp-Pro]] (cyclo(LRWPY[dW])), the IC50 (NK-1 receptor) is reported as 5170 ± 507 nM and the IC50 [1] is reported as 30 ± 2.52 nM.

For CC(C)C[C@@H]1NC(=O)[C@@H](Cc2c[nH]c3ccccc23)NC(=O)[C@H](Cc2ccc(O)cc2)NC(=O)[C@@H](C)NC(=O)[C@H](Cc2c[nH]c3ccccc23)NC(=O)[C@H](CCCNC(=N)N)NC1=O [cyclo[Tyr--trp--Leu--Arg--Trp--ala]] (cyclo(LRW[dA]Y[dW])), the IC50 [1] was 7.99 ± 1.02 nM.

For CC(C)C[C@@H]1NC(=O)[C@@H](Cc2c[nH]c3ccccc23)NC(=O)[C@H](Cc2ccc(O)cc2)NC(=O)[C@H](C)NC(=O)[C@H](Cc2ccc(O)cc2)NC(=O)[C@H](CCCNC(=N)N)NC1=O [cyclo[Tyr--trp--Leu--Arg--Tyr--Ala], cyclo[Tyr-trp-Leu-Arg-Tyr-Ala]] (cyclo(AY[dW]LRY)), the IC50 [1] was 206 ± 15 nM.

CC(C)C[C@@H]1NC(=O)[C@@H](Cc2c[nH]c3ccccc23)NC(=O)[C@H](Cc2ccc(O)cc2)NC(=O)CNC(=O)[C@H](Cc2ccc(O)cc2)NC(=O)[C@H](CCCNC(=N)N)NC1=O [cyclo[Tyr--trp--Leu--Arg--Tyr--Gly], cyclo[Tyr-trp-Leu-Arg-Tyr-Gly]] (cyclo(GY[dW]LRY)) showed an IC50 (NK-1 receptor) greater than 10000 nM and an IC50 [1] of 18.9 ± 1.58 nM.

In the case of CC(C)C[C@@H]1NC(=O)[C@@H](Cc2c[nH]c3ccccc23)NC(=O)[C@H](Cc2ccc(O)cc2)NC(=O)CNC(=O)[C@@H](Cc2c[nH]c3ccccc23)NC(=O)[C@H](CCCNC(=N)N)NC1=O [cyclo[Tyr--trp--Leu--Arg--trp--Gly]] (cyclo(GY[dW]LR[dW])), the IC50 (NK-1 receptor) is reported as greater than 10000 nM and the IC50 [1] is reported as 193 ± 11.5 nM.

Work on N=C(N)NCCC[C@@H]1NC(=O)[C@@H]2CCCN2C(=O)[C@@H](Cc2c[nH]c3ccccc23)NC(=O)[C@H](Cc2ccc(O)cc2)NC(=O)CNC(=O)[C@H](Cc2c[nH]c3ccccc23)NC1=O [cyclo[Tyr--trp--Pro--Arg--Trp--Gly], cyclo[Tyr-trp-Pro-Arg-Trp-Gly]] (cyclo(GY[dW]PRW)) yielded an IC50 (NK-1 receptor) greater than 10000 nM and an IC50 [1] of 5.13 ± 0.36 nM.

CC(C)C[C@@H]1NC(=O)[C@@H](Cc2c[nH]c3ccccc23)NC(=O)[C@H](Cc2ccc(O)cc2)NC(=O)CNC(=O)[C@H](Cc2ccc(Cl)cc2)NC(=O)[C@H](CCCNC(=N)N)NC1=O [cyclo[Tyr-trp-Leu-Arg-(p-Cl-Phe)-Gly]] (cyclo(GY[dW]LR[Phe(4-Cl)])) gave an IC50 (NK-1 receptor) of roughly 10000 nM and an IC50 [1] of 13.3 ± 1.31 nM.

Compound CC(C)C[C@@H]1NC(=O)[C@@H](Cc2c[nH]c3ccccc23)NC(=O)[C@H](Cc2ccc(O)cc2)NC(=O)CNC(=O)[C@H](Cc2ccc(N)cc2)NC(=O)[C@H](CCCNC(=N)N)NC1=O [cyclo[Tyr-trp-Leu-Arg-(p-NH2 -Phe)-Gly]] (cyclo(GY[dW]LR[Phe(4-NH2)])) has an IC50 (NK-1 receptor) greater than 10000 nM and an IC50 [1] of 20.2 ± 2.03 nM.

With CC(C)C[C@@H]1NC(=O)[C@@H](Cc2c[nH]c3ccccc23)NC(=O)[C@H](Cc2ccc(O)cc2)NC(=O)CNC(=O)[C@H](Cc2ccc([N+](=O)[O-])cc2)NC(=O)[C@H](CCCNC(=N)N)NC1=O [cyclo[Tyr-trp-Leu-Arg-(p-NO2 -Phe)-Gly]] (cyclo(GY[dW]LR[Phe(4-NO2)])) the IC50 (NK-1 receptor) was greater than 10000 nM and the IC50 [1] was 11.7 ± 0.44 nM.

CC(C)C[C@@H]1NC(=O)[C@H](CCC(N)=O)NC(=O)[C@@H](Cc2ccc(O)cc2)NC(=O)CNC(=O)[C@H](Cc2c[nH]c3ccccc23)NC(=O)[C@H](CCCNC(=N)N)NC1=O [cyclo[tyr--Gln--Leu--Arg--Trp--Gly], cyclo[tyr-Gln-Leu-Arg-Trp-Gly]] (cyclo(G[dY]QLRW)) was tested, and the IC50 [1] was 407 ± 52 nM.

Work on CC(C)C[C@@H]1NC(=O)[C@@H](Cc2c[nH]c3ccccc23)NC(=O)[C@@H](Cc2ccc(O)cc2)NC(=O)CNC(=O)[C@H](Cc2c[nH]c3ccccc23)NC(=O)[C@H](CCCNC(=N)N)NC1=O [cyclo[tyr--trp--Leu--Arg--Trp--Gly]] (cyclo(G[dY][dW]LRW)) yielded an IC50 (NK-1 receptor) greater than 10000 nM and an IC50 [1] of 4.97 ± 0.42 nM.
